Reference: patent US11932632B1, “N'-(2-(5-phenyl-1,3,4-oxadiazol-2-ylthio)acetoxy)benzo[d][1,3]dioxole-5 carboximidamide as an antimicrobial compound” (KING FAISAL UNIVERSITY, priority 2023, dated 2024)

How the values were obtained:
Type in all cases: cell-based
Aspergillus flavus = test: Agar plate disc-diffusion, antifungal activity by inhibition zone; details: Sabouraud's dextrose agar, 37° C., 72 h, DMSO zone subtracted
Protocol: (§1) The agar plate disc-diffusion method was applied. […] The discs were then placed onto the surface of agar plates (nutrient agar for bacteria and Sabouraud's dextrose agar for fungi) seeded with the test organism. Each plate contained 15 mL of the agar medium, previously seeded with 0.2 mL of the broth culture of each organism pregrown for 18 hours. The plates were incubated at 37° C. for 48 h, and 72 h for fungi. The inhibition zones were measured in mm. Discs impregnated with DMSO were used as a control, and its inhibition zone was subtracted from the tested compound actual inhibition zone.
(§2) The results of the antimicrobial testing can be observed in Tables 1 and 2, below, using ciprofloxacin as a reference.

[1] = tested on: Chrysosporium keratinophilum; test: as above; details: Sabouraud's dextrose agar, 37° C., 72 h, DMSO zone subtracted
Protocol: as §1, §2

Pseudomonas aeruginosa = test: Agar plate disc-diffusion, antibacterial activity by inhibition zone; details: nutrient agar, 37° C., 48 h, DMSO zone subtracted
Protocol: as §1, §2

Bacillus Cereus = test: as above; details: nutrient agar, 37° C., 48 h, DMSO zone subtracted
Protocol: as §1, §2

Staphylococcus aureus = test: as above; details: nutrient agar, 37° C., 48 h, DMSO zone subtracted
Protocol: as §1, §2

Escherichia coli = test: as above; details: nutrient agar, 37° C., 48 h, DMSO zone subtracted
Protocol: as §1, §2

[2] = A = concentration of comp. = 10,000 μL
[3] = B = concentration of comp. = 30.000 μL
[4] = C = concentration of comp. = 50,000 μL

Compound: N/C(=N\OC(=O)CSc1nnc(-c2ccccc2)o1)c1ccc2c(c1)OCO2 [Compound 3, N′-(2-(5-phenyl-1,3,4-oxadiazol-2-ylthio)acetoxy)benzo[d][1,3]dioxole-5-carboximidamide]
- inhibition zone, Aspergillus flavus, A (Aspergillus flavus; [2]): 21 mm
- inhibition zone, Aspergillus flavus, B (Aspergillus flavus; [3]): 25 mm
- inhibition zone, Aspergillus flavus, C (Aspergillus flavus; [4]): 36 mm
- inhibition zone, Chrysosporium keratinophilum, A [1, 2]: 25 mm
- inhibition zone, Chrysosporium keratinophilum, B [1, 3]: 27 mm
- inhibition zone, Chrysosporium keratinophilum, C [1, 4]: 42 mm
- inhibition zone, Pseudomonas aeruginosa, A (Pseudomonas aeruginosa; [2]): 24 mm
- inhibition zone, Pseudomonas aeruginosa, B (Pseudomonas aeruginosa; [3]): 27 mm
- inhibition zone, Pseudomonas aeruginosa, C (Pseudomonas aeruginosa; [4]): 39 mm
- inhibition zone, Bacillus Cereus, A (Bacillus Cereus; [2]): 25 mm
- inhibition zone, Bacillus Cereus, B (Bacillus Cereus; [3]): 29 mm
- inhibition zone, Bacillus Cereus, C (Bacillus Cereus; [4]): 39 mm
- inhibition zone, Staphylococcus aureus, A (Staphylococcus aureus; [2]): 18 mm
- inhibition zone, Staphylococcus aureus, B (Staphylococcus aureus; [3]): 21 mm
- inhibition zone, Staphylococcus aureus, C (Staphylococcus aureus; [4]): 37 mm
- inhibition zone, Escherichia coli, A (Escherichia coli; [2]): 29 mm
- inhibition zone, Escherichia coli, B (Escherichia coli; [3]): 33 mm
- inhibition zone, Escherichia coli, C (Escherichia coli; [4]): 49 mm
